For assay [1], the target named is T1, Carbonic anhydrase 3 (Homo sapiens, UniProt P07451). Description: Binding affinity to human recombinant CA III active site expressed in Escherichia coli BL21 (DE3) pLysS cells at 18.18 uM at protein:compound ratio of 1:2 incubated for 30 mins by native mass spectrometry analysis.
Assay [2] concerns the target T1, Carbonic anhydrase 3. Description: Binding affinity to human recombinant CA III assessed as inhibition constant.

Activity calls are given as the source filed them. No cut-off for these calls is given here.

T1 sequence (P07451 whole entry): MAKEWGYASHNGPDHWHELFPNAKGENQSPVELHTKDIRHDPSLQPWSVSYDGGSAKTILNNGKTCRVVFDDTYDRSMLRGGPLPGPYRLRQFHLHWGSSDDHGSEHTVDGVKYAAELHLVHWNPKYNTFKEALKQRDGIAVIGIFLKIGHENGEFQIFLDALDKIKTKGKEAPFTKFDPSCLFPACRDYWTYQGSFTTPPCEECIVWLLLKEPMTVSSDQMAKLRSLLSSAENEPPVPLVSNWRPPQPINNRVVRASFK

On to `CC1Cc2ccccc2N1NC(=O)c1ccc(Cl)c(S(N)(=O)=O)c1` (stereo unspecified), for which the outcome in assay [1] was inactive.
Same read-out and setting: for `Cc1ccc(-c2cc(C(F)(F)F)nn2-c2ccc(S(N)(=O)=O)cc2)cc1` the value was “inactive”; for `Cc1onc(-c2ccccc2)c1-c1ccc(S(N)(=O)=O)cc1`, “inactive”.
On to `NS(=O)(=O)c1cc(C(=O)O)c(NCc2ccco2)cc1Cl`, for which the result in assay [1] was inactive.
As for `NS(=O)(=O)c1ccc(N2CCCCS2(=O)=O)cc1`, the result in assay [1] was inactive.
By Ki is commonly meant a dissociation constant, usually derived from enzyme kinetics or from competition with a known ligand. As for `CCCCNc1cc(C(=O)O)cc(S(N)(=O)=O)c1Oc1ccccc1` [BUMETANIDE], the result in assay [1] was inactive. For the same compound, the Ki in assay [2] is 3400 µM.
In the case of `NS(=O)(=O)c1cc2c(cc1Cl)NCNS2(=O)=O` [HYDROCHLOROTHIAZIDE], the result in assay [1] was inactive. Besides, the Ki in assay [2] was 790 µM.
In the same order, the values of `Cc1ccccc1N1C(=O)c2cc(S(N)(=O)=O)c(Cl)cc2NC1C` (stereo unspecified) [METOLAZONE] are “inactive” and 610 µM.

(Values after ChEMBL document CHEMBL5584335, “Investigating Active Site Binding of Ligands to High and Low Activity Carbonic Anhydrase Enzymes Using Native Mass Spectrometry” (J Med Chem, 2024).)
